In article PMC6271639, “Lycodine-Type Alkaloids from Lycopodiastrum casuarinoides and Their Acetylcholinesterase Inhibitory Activity” (Molecules, 2014):

How the values were obtained:
[1] = target: T1, AChE (EC3.1.1.7, Sigma product no. C2888) (Electrophorus electricus, UniProt O42275); experiment: AChE inhibition by modified Ellman's method in 96-well microplates; assay type: biochemical; details: for AChE inhibitory activity in words: qualitative statement
T1 construct: purchased Sigma (St. Louis, MO, USA) C2888
T1 sequence (O42275 24-633): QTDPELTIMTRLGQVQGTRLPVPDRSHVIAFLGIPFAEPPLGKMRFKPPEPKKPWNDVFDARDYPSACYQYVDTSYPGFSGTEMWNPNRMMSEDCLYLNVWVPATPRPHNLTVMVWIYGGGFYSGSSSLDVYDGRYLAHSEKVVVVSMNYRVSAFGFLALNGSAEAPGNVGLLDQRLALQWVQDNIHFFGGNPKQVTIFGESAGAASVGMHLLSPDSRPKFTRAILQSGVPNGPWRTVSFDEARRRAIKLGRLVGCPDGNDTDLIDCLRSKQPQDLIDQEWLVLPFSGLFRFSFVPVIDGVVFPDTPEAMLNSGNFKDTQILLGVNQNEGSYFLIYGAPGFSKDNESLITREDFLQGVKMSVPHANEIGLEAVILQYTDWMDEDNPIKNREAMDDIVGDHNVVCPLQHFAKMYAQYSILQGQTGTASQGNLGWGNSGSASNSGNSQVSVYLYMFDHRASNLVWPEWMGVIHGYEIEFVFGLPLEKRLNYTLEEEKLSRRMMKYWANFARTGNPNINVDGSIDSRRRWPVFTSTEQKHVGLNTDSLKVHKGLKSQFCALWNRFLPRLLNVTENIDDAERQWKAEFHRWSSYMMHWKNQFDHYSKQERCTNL
Procedure: The isolated lycodine-type alkaloids 1–14 were evaluated for their AChE inhibiting activity by Ellman’s method in 96-well microplates.
AChE (EC3.1.1.7, Sigma product no. C2888), acetylthiocholine iodide (ATCI), 5,5'-dithiobis [2-nitrobenzoic acid] (DTNB) and huperzine A (purity 98%) were purchased from Sigma (St. Louis, MO, USA).
Briefly, 0.1 M sodium phosphate buffer (140 µL, pH = 8.0), sample solution (20 µL) and enzyme solution (15 µL) were mixed and incubated at 4 °C for 20 min. Ten µL of 0.01 M DTNB was added and the reaction was then started by adding 0.075 M ATCI (10 µL). […] Blanks were set up by adding 20 µL buffer solutions instead of 20 µL sample solution. Experiment control was set up by adding 15 µL buffer solutions instead of 15 µL enzyme solution in order to deduct the sample background. All reactions were carried out thrice.

AChE = details: previously reported ref 8, 13, 21; cited from earlier work

SMILES | AChE inhibitory activity in words [1] | IC50 [1] | IC50 (AChE)
C=CC1C2C=C(C)CC1(N(C)C)c1ccc(=O)[nH]c1C2 (stereo not drawn) [Compound 5, huperzinine] | very weak activity | – | –
C=CC1C2C=C(C)CC1(NC)c1ccc(=O)[nH]c1C2 (stereo not drawn) [Compound 7, N-demethylhuperzinine] | – | 1.9 ± 0.2 µM | –
CC1=C[C@H]2Cc3[nH]c(=O)ccc3[C@]3(C1)NCCC[C@H]23 [Compound 9, huperzine B] | significant inhibitory activity | 20.2 ± 1.3 µM | 19.3 µM
C=CC1C2C=C(CO)CC1(NC)c1ccc(=O)[nH]c1C2 (stereo not drawn) [Compound 10, casuarinine E] | – | > 250 µM | –
C=C[C@@H]1[C@H]2C=C(CO)C[C@]1(N)c1ccc(=O)[nH]c1C2 [Compound 13, lycoparin C] | significant inhibitory activity | 23.9 ± 2.2 µM | 25 µM
